According to ChEMBL document CHEMBL6071157, “Improved N-phenylpyrrolamide inhibitors of DNA gyrase as antibacterial agents for high-priority bacterial strains” (Eur J Med Chem, 2024):
In brackets after ≈: the same amount, converted by molar mass. Activity calls are given as the source filed them. No cut-off for these calls is given here.

Experiments:
Escherichia coli [1] = assay: Antibacterial activity against Escherichia coli ATCC 25922 assessed as inhibition of bacterial growth by broth microdilution method; format: functional
Enterococcus faecalis = assay: Antibacterial activity against Enterococcus faecalis ATCC 29212 assessed as inhibition of bacterial growth by broth microdilution method; format: functional
Staphylococcus aureus [2] = assay: Antibacterial activity against Staphylococcus aureus ATCC 29213 assessed as inhibition of bacterial growth by broth microdilution method; format: functional
Pseudomonas aeruginosa = assay: Antibacterial activity against Pseudomonas aeruginosa ATCC 27853 assessed as inhibition of bacterial growth by broth microdilution metho; format: functional
Escherichia coli [3] = assay: Inhibition of Escherichia coli DNA topoisomerase-IV assessed as residual activity at 10 uM by relaxation plate assay relative to control
Enterococcus faecium = assay: Antibacterial activity against vancomycin-resistant Enterococcus faecium ATCC 700221 assessed as inhibition of bacterial growth by broth microdilution method; format: functional
DNA gyrase = DNA gyrase (Escherichia coli, UniProt P0AES4+P0AES6); assay: Inhibition of Escherichia coli DNA gyrase by supercoiling plate assay; format: protein-complex assay
MCF7 = assay: Cytotoxicity against human MCF7 cells assessed as cell viability at 50 uM incubated for 72 hrs by CellTiter 96 aqueous one solution reagent based MTS assay relative to control; format: functional; details: read-out: Activity
Staphylococcus aureus [4] = assay: Antibacterial against vancomycin-intermediate Staphylococcus aureus ATCC 700699 assessed as inhibition of bacterial growth by broth dilution method; format: functional
Staphylococcus aureus [5] = assay: Antibacterial against methicillin resistant Staphylococcus aureus ATCC 43300 assessed as inhibition of bacterial growth by broth microdilution method; format: functional; details: time 24 hrs
Enterobacter cloacae = assay: Antibacterial activity against Enterobacter cloacae subsp. cloacae ATCC 13047 assessed as inhibition of bacterial growth by broth microdilution method; format: functional
Klebsiella pneumoniae = assay: Antibacterial activity against Klebsiella pneumoniae ATCC 10031 assessed as inhibition of bacterial growth by broth microdilution method; format: functional
[6] = target: T1, DNA topoisomerase 2-alpha (Homo sapiens, UniProt P11388); assay: Inhibition of human DNA topoisomerase 2-alpha using linear pBR322 as substrate assessed as conversion of NADH to NAD+ preincubated for 10 to 15 mins in presence of pyruvate kinase/lactate dehydrogenase mix followed by ATP addition and measured after 30 mins by ATPase assay
T1 sequence (P11388 whole entry): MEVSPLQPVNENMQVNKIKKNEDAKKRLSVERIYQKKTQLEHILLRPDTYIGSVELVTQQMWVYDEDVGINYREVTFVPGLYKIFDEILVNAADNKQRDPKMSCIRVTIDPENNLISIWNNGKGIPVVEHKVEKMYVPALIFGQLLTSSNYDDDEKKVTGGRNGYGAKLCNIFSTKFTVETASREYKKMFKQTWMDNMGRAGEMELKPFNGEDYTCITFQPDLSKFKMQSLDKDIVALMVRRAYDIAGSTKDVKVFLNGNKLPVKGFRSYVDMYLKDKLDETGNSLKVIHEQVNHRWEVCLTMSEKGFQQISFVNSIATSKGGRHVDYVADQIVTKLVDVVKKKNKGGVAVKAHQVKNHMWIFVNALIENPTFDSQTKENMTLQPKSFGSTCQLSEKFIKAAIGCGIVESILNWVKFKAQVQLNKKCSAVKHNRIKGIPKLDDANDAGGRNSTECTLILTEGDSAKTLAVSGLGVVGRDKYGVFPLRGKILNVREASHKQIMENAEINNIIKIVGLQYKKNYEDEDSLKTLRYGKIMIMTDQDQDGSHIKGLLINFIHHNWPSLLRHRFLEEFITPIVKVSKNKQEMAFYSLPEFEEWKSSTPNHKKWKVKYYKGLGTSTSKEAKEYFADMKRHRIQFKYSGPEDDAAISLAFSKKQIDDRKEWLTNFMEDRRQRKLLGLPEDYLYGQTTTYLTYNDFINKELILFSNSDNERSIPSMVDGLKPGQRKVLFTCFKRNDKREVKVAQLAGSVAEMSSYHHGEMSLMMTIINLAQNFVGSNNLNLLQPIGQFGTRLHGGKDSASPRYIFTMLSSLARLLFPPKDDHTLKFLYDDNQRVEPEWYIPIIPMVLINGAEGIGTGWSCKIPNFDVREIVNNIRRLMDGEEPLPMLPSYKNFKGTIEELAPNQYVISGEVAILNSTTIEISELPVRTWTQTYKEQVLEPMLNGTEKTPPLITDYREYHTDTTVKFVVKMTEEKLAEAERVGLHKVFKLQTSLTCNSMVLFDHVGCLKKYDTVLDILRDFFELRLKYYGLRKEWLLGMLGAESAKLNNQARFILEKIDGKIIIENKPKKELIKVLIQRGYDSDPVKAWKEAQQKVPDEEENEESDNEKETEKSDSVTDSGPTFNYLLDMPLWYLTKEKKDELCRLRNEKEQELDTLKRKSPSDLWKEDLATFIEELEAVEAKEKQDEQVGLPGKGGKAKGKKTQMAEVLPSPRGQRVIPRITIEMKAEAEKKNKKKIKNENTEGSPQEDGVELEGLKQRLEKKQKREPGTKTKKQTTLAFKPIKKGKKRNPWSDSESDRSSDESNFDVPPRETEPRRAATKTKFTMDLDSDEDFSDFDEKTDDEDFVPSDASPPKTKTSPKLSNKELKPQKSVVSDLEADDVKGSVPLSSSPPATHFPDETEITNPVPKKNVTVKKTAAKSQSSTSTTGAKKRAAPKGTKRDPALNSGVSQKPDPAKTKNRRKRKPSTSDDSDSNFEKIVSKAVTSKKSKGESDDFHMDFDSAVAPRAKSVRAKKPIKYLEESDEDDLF

Acinetobacter baumannii = assay: Antibacterial activity against Acinetobacter baumannii ATCC 17978 assessed as inhibition of bacterial growth by broth microdilution method; format: functional
[7] = target: T1, DNA topoisomerase 2-alpha; assay: Inhibition of human DNA topoisomerase 2-alpha using linear pBR322 as substrate assessed as conversion of NADH to NAD+ by measuring residual activity at 100 uM preincubated for 10 to 15 mins in presence of pyruvate kinase/lactate dehydrogenase mix followed by ATP addition and measured after 30 mins by ATPase assay relative to control; details: time 40-55 min
[8] = target: DNA gyrase (Staphylococcus aureus) (UniProt P0A0K8+P20831); assay: Inhibition of Staphylococcus aureus DNA gyrase assessed as residual activity at 0.1 uM by supercoiling plate assay relative to control; format: protein-complex assay
DNA gyrase (Staphylococcus aureus), sequence (P0A0K8 2-644 limits assumed): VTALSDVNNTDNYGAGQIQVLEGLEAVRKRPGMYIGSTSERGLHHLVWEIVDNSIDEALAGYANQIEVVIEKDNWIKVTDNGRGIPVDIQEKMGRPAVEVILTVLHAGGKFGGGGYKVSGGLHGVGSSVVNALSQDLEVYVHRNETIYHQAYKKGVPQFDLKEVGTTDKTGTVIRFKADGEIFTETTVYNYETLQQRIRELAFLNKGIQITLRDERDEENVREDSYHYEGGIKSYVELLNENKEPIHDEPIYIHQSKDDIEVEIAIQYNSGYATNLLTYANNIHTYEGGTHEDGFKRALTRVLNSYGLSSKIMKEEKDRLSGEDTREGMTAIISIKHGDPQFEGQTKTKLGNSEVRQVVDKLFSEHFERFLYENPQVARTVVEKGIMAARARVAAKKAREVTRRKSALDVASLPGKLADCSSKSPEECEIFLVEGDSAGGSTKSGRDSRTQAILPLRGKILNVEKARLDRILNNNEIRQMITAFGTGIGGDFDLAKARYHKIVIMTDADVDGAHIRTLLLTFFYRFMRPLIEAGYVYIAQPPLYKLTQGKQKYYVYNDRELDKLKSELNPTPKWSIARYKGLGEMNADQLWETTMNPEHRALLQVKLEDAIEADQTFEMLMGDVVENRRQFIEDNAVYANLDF
DNA gyrase (Staphylococcus aureus), sequence (P20831 whole entry partner): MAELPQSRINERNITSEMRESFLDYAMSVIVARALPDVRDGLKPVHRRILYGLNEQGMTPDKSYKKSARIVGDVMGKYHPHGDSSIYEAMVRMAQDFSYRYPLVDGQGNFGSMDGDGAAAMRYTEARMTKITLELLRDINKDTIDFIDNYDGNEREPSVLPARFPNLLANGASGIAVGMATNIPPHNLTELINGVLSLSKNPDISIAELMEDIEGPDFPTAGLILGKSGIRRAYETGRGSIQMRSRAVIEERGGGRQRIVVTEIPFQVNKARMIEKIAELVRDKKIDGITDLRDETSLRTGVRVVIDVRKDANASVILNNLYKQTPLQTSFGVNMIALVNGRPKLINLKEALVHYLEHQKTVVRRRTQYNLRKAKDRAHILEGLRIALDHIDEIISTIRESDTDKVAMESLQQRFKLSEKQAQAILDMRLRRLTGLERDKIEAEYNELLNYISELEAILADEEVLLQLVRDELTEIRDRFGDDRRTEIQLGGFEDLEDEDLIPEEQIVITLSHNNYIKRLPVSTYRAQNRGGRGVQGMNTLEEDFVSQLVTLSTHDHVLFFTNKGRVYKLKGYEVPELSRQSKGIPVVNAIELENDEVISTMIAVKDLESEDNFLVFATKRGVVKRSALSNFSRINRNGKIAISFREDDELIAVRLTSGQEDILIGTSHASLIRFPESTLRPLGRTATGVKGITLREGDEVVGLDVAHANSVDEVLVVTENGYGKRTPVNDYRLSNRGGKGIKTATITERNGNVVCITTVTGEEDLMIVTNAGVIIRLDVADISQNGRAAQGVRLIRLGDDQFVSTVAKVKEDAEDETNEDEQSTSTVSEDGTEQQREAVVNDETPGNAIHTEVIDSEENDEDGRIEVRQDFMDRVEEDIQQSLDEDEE

Staphylococcus aureus [9] = assay: Drug resistance, ratio of MIC for methicillin-resistant Staphylococcus aureus ATCC 43300 measured after 10 passages to MIC for methicillin-resistant Staphylococcus aureus during first exposure; format: functional
Staphylococcus aureus [10] = assay: Bactericidal activity against methicillin resistant Staphylococcus aureus ATCC 43300 at 8 times of MIC measured a 6 to 24 hrs by time-kill kinetic assay; format: functional, organism-based; details: time 6-24 hrs
Staphylococcus aureus [11] = assay: Drug resistance, ratio of MIC for methicillin-resistant Staphylococcus aureus ATCC 43300 measured after 8 passages to MIC for methicillin-resistant Staphylococcus aureus during first exposure; format: functional
Staphylococcus aureus [12] = assay: Antibacterial activity against methicillin resistant Staphylococcus aureus ATCC 43300 assessed as post antibiotic effect at 8 times of MIC incubated for 1 hrs and measured after 8 hrs; format: functional; details: time 9 hrs
[13] = Metabolic stability in mouse liver microsomes assessed as half life at 1 uM preincubated for 10 mins followed by NADPH addition and measured after 5 to 60 mins by LC-MS/MS analysis; format: ADME, Microsome; details: time 15-70 min
[14] = Metabolic stability in mouse liver microsomes assessed as intrinsic clearance at 1 uM preincubated for 10 mins followed by NADPH addition and measured after 5 to 60 mins by LC-MS/MS analysis; format: ADME, Microsome; details: time 15-70 min, read-out: CLH
Escherichia coli [15] = assay: Inhibition of Escherichia coli DNA topoisomerase-IV assessed as residual activity at 1 uM by relaxation plate assay relative to control
[16] = Metabolic stability in human liver microsomes assessed as intrinsic clearance at 1 uM preincubated for 10 mins followed by NADPH addition and measured after 5 to 60 mins by LC-MS/MS analysis; format: ADME, Microsome; details: time 15-70 min, read-out: CLH
[17] = Metabolic stability in human liver microsomes assessed as half life at 1 uM preincubated for 10 mins followed by NADPH addition and measured after 5 to 60 mins by LC-MS/MS analysis; format: ADME, Microsome; details: time 15-70 min
Staphylococcus aureus [18] = assay: Antibacterial activity against methicillin resistant Staphylococcus aureus ATCC 43300 assessed as assessed as bacterial killing incubated for 24 hrs by time-kill kinetics assay; format: functional, organism-based
[19] = Inhibition of Escherichia coli DNA topoisomerase-IV relaxation plate assay
Staphylococcus aureus [20] = assay: Bactericidal activity against Staphylococcus aureus ATCC 43300 at 8 times MIC measured after 8 hrs by time kill assay; format: functional, organism-based
[21] = target: DNA gyrase (Escherichia coli) (UniProt P0AES6+P0AES4); assay: Inhibition of Escherichia coli DNA gyrase assessed as residual activity at 1 uM by supercoiling plate assay relative to control; format: protein-complex assay
[22] = target: T1, DNA topoisomerase 2-alpha; assay: Inhibition of human DNA topoisomerase 2-alpha using linear pBR322 as substrate assessed as conversion of NADH to NAD+ by measuring residual activity at 40 uM preincubated for 10 to 15 mins in presence of pyruvate kinase/lactate dehydrogenase mix followed by ATP addition and measured after 30 mins by ATPase assay relative to control; details: time 40-55 min
[23] = target: T1, DNA topoisomerase 2-alpha; assay: Inhibition of human DNA topoisomerase 2-alpha using linear pBR322 as substrate assessed as conversion of NADH to NAD+ by measuring residual activity at 10 uM preincubated for 10 to 15 mins in presence of pyruvate kinase/lactate dehydrogenase mix followed by ATP addition and measured after 30 mins by ATPase assay relative to control; details: time 40-55 min

| Compound | MIC (Escherichia coli [1]) [µg/mL] | MIC (Enterococcus faecalis) [µg/mL] | MIC (Staphylococcus aureus [2]) [µg/mL] | MIC (Pseudomonas aeruginosa) [µg/mL] | MIC (Enterococcus faecium) [µg/mL] | IC50 (DNA gyrase) [nM] | viability at 50 µM (MCF7) [%] | MIC (Staphylococcus aureus [4]) [µg/mL] | MIC (Staphylococcus aureus [5]) [µg/mL] | MIC (Enterobacter cloacae) [µg/mL] | MIC (Klebsiella pneumoniae) [µg/mL] | MIC (Acinetobacter baumannii) [µg/mL] | Activity [7] [%] | also measured |
| --- | --- | --- | --- | --- | --- | --- | --- | --- | --- | --- | --- | --- | --- | --- |
| Cc1[nH]c(C(=O)Nc2ccc(-n3nn[nH]c3=O)cc2N2CCN(c3ccccc3)CC2)c(Cl)c1Cl | > 32 | 0.5 (≈ 0.974 µM) | > 32 | > 32 | 0.5 (≈ 0.974 µM) | 7.8 | 58 | 0.5 (≈ 0.974 µM) | > 32 | > 32 | > 32 | > 32 |  | Activity (Escherichia coli [3]): 104%; IC50 [6]: 33600 nM |
| Cc1[nH]c(C(=O)Nc2ccc(-n3nn[nH]c3=O)cc2N2CCC(NC(=O)OC(C)(C)C)CC2)c(Cl)c1Cl |  |  |  |  |  | 33 |  |  |  |  |  |  | 34 | Activity [8]: 65%; Activity (Escherichia coli [3]): 63% |
| O=C(O)c1cn(C2CC2)c2cc(N3CCNCC3)c(F)cc2c1=O [CIPROFLOXACIN] |  |  |  |  |  |  |  |  |  |  |  |  |  | Ratio (Staphylococcus aureus [9]): 16; Activity (Staphylococcus aureus [10]): Active; Ratio (Staphylococcus aureus [11]): 8; PAE (Staphylococcus aureus [12]): 2 h |
| Cc1[nH]c(C(=O)Nc2ccc(-c3noc(=O)[nH]3)cc2N2CCN(C(=O)OC(C)(C)C)CC2)c(Cl)c1Cl | > 64 | < 0.031 | > 64 | > 64 | 0.25 (≈ 0.465 µM) | 13.7 | 78 | < 0.031 | > 64 | > 64 | > 64 | > 64 | 95 | half-life at 1 µM [13]: > 2.42 h; microsomal CLint at 1 µM [14]: < 9.6 µL/min/mg; Activity (Escherichia coli [15]): 71%; microsomal CLint at 1 µM [16]: 18.2 µL/min/mg |
| Cc1[nH]c(C(=O)Nc2ccc(-c3noc(=O)[nH]3)cc2N2CCC(NC(=O)OC(C)(C)C)CC2)c(Cl)c1Cl | > 64 | < 0.031 | > 64 | > 64 | 0.5 (≈ 0.907 µM) | 6.7 | 44 | 0.063 (≈ 0.114 µM) | 0.5 (≈ 0.907 µM) | > 64 | > 64 | > 64 | 30 | Activity (Escherichia coli [15]): 62%; half-life at 1 µM [17]: 1.27 h |
| Cc1[nH]c(C(=O)Nc2ccc(-c3noc(=O)[nH]3)cc2NC2CCN(C(=O)OC(C)(C)C)CC2)c(Cl)c1Cl | > 64 | < 0.031 | 2 (≈ 3.63 µM) | > 64 | 0.063 (≈ 0.114 µM) | 6.92 | 64 | < 0.031 | 0.5 (≈ 0.907 µM) | > 64 | > 64 | > 64 | 98 | Activity (Staphylococcus aureus [18]): Dose-Dependent Effect; IC50 [19]: 1680 nM; Activity (Staphylococcus aureus [20]): Active; Ratio (Staphylococcus aureus [9]): 128; Ratio (Staphylococcus aureus [11]): 4; PAE (Staphylococcus aureus [12]): 2 h |
| Cc1nnc(-c2ccc(NC(=O)c3[nH]c(C)c(Cl)c3Cl)c(OC(C)C)c2)o1 | > 64 |  | > 64 | > 64 |  |  |  |  |  |  |  |  |  | Activity [21]: 95%; Activity [22]: 115% |
| Cc1[nH]c(C(=O)Nc2ccc(-c3noc(=O)[nH]3)cc2N2CCC(N)CC2)c(Cl)c1Cl.Cl | > 64 | 32 | 64 | > 64 | 32 | 0.253 |  | 16 | 32 | > 64 | 64 | > 64 |  | IC50 [19]: 187 nM; IC50 [6]: 26200 nM |
| Cc1[nH]c(C(=O)Nc2ccc(-c3nnn[nH]3)cc2N2CCCC(CNC(=O)OC(C)(C)C)C2)c(Cl)c1Cl (stereo not drawn) |  |  |  |  |  | 280 |  |  |  |  |  |  |  | Activity [23]: 95% |
| Cc1[nH]c(C(=O)Nc2ccc(-c3noc(=O)[nH]3)cc2N2CCOCC2)c(Cl)c1Cl | > 32 |  | 4 (≈ 9.13 µM) | > 32 | 0.5 (≈ 1.14 µM) | 13 | 101 |  | 2 (≈ 4.56 µM) |  |  |  |  | Activity [22]: 119%; Activity (Escherichia coli [3]): 76% |
| Cc1[nH]c(C(=O)Nc2ccc(-c3nnn[nH]3)cc2N2CCOCC2)c(Cl)c1Cl | > 64 |  | > 64 | > 64 | > 64 | 44.5 |  |  | > 64 | > 64 | > 64 | > 64 |  | Activity (Escherichia coli [15]): 77%; IC50 [6]: 39200 nM |
